Measured values published in patent US20240148821A1, “PHARMACEUTICAL USE OF CYCLIC PEPTIDE COMPOUND” (CHUGAI SEIYAKU KABUSHIKI KAISHA, priority 2021, published 2024).
Numbered stars: 1 amine (or outer) side, 2 acyl side, 3 side chain; on linkers, the order of the positions; unused ones are H or OH. Bridge positions count the residues as written; N and C are the ends. Square brackets hold non-standard residues; d marks the D form. Peptide text beside a SMILES is read from it. * marks the point of attachment. hPhe(3,5-F2-4-CF3) = N[C@@H](CCc1cc(F)c(C(F)(F)F)c(F)c1)C(=O)O; hPhe(3-Cl-4-CF3) = N[C@@H](CCc1ccc(C(F)(F)F)c(Cl)c1)C(=O)O; hPhe(3-F,4-CF3) = N[C@@H](CCc1ccc(C(F)(F)F)c(F)c1)C(=O)O; NEtPhe(4-CF3) = CCN[C@@H](Cc1ccc(C(F)(F)F)cc1)C(=O)O; NMePhe(4-CF3) = CN[C@@H](Cc1ccc(C(F)(F)F)cc1)C(=O)O; NEtPhe(4-Me) = CCN[C@@H](Cc1ccc(C)cc1)C(=O)O; NMePhe(4-Cl) = CN[C@@H](Cc1ccc(Cl)cc1)C(=O)O; NMePhe(4-Me) = CN[C@@H](Cc1ccc(C)cc1)C(=O)O; NMedβ3hAla = C[C@H](CC(=O)[*:2])N(C)[*:1]; NMeAla(cPent) = CN[C@@H](CC1CCCC1)C(=O)O; NMeGly(cPent) = CN[C@H](C(=O)O)C1CCCC1; NMeCha = CN[C@@H](CC1CCCCC1)C(=O)O; Hyp = O=C(O)[C@@H]1C[C@@H](O)CN1; NMeAhp(2) = CCCCC[C@H](NC)C(=O)O; NMeChg = CN[C@H](C(=O)O)C1CCCCC1; NMeI = CC[C@H](C)[C@H](NC)C(=O)O; NMeE = CN[C@@H](CCC(=O)O)C(=O)O; NMeD = CN[C@@H](CC(=O)O)C(=O)O; NMeL = CN[C@@H](CC(C)C)C(=O)O; NMeV = CN[C@H](C(=O)O)C(C)C; d(β3hA) = C[C@@H](N)CC(=O)O; Azetidin(1-yl) = C1CN(*)C1; NMeC = CN[C@@H](CS)C(=O)O; NMeS = CN[C@@H](CO)C(=O)O; dNMeS = CN[C@H](CO)C(=O)O; Morpholide = C1CN(*)CCO1; NMeA = CN[C@@H](C)C(=O)O; NMeAib = CNC(C)(C)C(=O)O; Piperidide = C1CCN(*)CC1; Pyrrolidide = C1CCN(*)C1; dNMeA = CN[C@H](C)C(=O)O; Ac5c = NC1(C(=O)O)CCCC1; Aze = O=C(O)[C@@H]1CCN1; Ac4c = NC1(C(=O)O)CCC1; Sar = CNCC(=O)O; Propyl = CCC*

Key:
[1] = tested on: Human pancreatic cancer cell line AsPC-1 (G12D mutation Kras); assay: AsPC-1 cell growth inhibition (AsPC-1 CGI); assay type: cell-based; details: read-out: AsPC-1 cell growth inhibition, 50% growth inhibitory concentration (IC50 value); 96 hours, CellTiter-Glo, values classified in ranges
Procedure: Test compounds were serially dilated with dimethyl sulfoxide, and 200 nL was then dispensed to a U-bottom 96-well plate using Labcyte Echo. […] The cell suspension was dispensed to a. plate containing a test compound at 100 μL per well and incubated at 37° C. in a 5% carbon dioxide gas incubator. 96 hours later, 80 μL of CellTiter-Glo (Promega) was added to each well and fluorescence was measured.

[2] = target: protein-protein interaction between Kras and SOS1 (biotin-tagged human Kras loaded with GDP, His-tagged human SOS1) (Homo sapiens (Human), UniProt P01116, G12D); assay: Protein-protein interaction inhibition between Kras and SOS1 (KrasG12D-SOS PPI) using AlphaScreen; assay type: biochemical; details: AlphaScreen; biotin-tagged human Kras loaded with GDP, His-tagged human SOS1; read-out: KRAS G12D-SOS PPI IC50;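 note: kras produced in E. coli, Ni-coupled donor beads and streptavidin acceptor beads, excitation 680 nm with emission detected at 520–620 nm via singlet oxygen transfer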

Structure (SMILES)	IC50 [1] [µM]	IC50 [2] [µM]
CC[C@H](C)[C@@H]1NC(=O)[C@H](CC(C)C)N(C)C(=O)C[C@@H](C(=O)N2CCOCC2)N(C)C(=O)[C@H]([C@@H](C)CC)N(C)C(=O)C2(CCCC2)NC(=O)[C@@H]2CCCN2C(=O)[C@H](CCc2cc(F)c(C(F)(F)F)c(F)c2)NC(=O)CN(C)C(=O)[C@H](Cc2ccc(C(F)(F)F)cc2)N(CC)C(=O)[C@@H]2CCN2C(=O)[C@H](C)N(C)C1=O [Compound 1364] ([NMeL]I[NMeA][Aze][NEtPhe(4-CF3)][Sar][hPhe(3,5-F2-4-CF3)]P[Ac5c][NMeI][NMeD]-Morpholide; lactam N-11)	≤ 0.02	0.0012
CC[C@H](C)[C@@H]1NC(=O)[C@H](CC2CCCC2)N(C)C(=O)C[C@@H](C(=O)N(C)C)N(C)C(=O)[C@H]([C@@H](C)CC)N(C)C(=O)C2(CCCC2)NC(=O)[C@@H]2CCCN2C(=O)[C@H](CCc2ccc(C(F)(F)F)c(Cl)c2)NC(=O)CN(C)C(=O)[C@H](Cc2ccc(C)cc2)N(C)C(=O)[C@@H]2CCN2C(=O)[C@H](C)N(C)C1=O [Compound 400] ([NMeAla(cPent)]I[NMeA][Aze][NMePhe(4-Me)][Sar][hPhe(3-Cl-4-CF3)]P[Ac5c][NMeI][NMeD]-NMe2; lactam N-11)	≤ 0.02	0.00085
CC[C@H](C)[C@@H]1NC(=O)[C@H](C)N(C)C(=O)C[C@@H](C)NC(=O)[C@H](C2CCCC2)N(C)C(=O)C2(CCCC2)NC(=O)[C@@H]2CCCN2C(=O)[C@H](CCc2ccc(C(F)(F)F)c(Cl)c2)NC(=O)[C@@H](C)N(C)C(=O)[C@H](CC2CCCCC2)N(C)C(=O)[C@@H]2CCN2C(=O)CN(C)C1=O [Compound 1539] (cyclo([Ac5c][NMeGly(cPent)][d(β3hA)][NMeA]I[Sar][Aze][NMeCha][dNMeA][hPhe(3-Cl-4-CF3)]P))	> 0.5	0.054
CC[C@H](C)[C@@H]1NC(=O)[C@H](CC(C)C)N(C)C(=O)C[C@@H](C(=O)N(C)C)N(C)C(=O)[C@H]([C@@H](C)CC)N(C)C(=O)C2(CCCC2)NC(=O)[C@@H]2CCCN2C(=O)[C@H](CCc2ccc(C(F)(F)F)c(Cl)c2)NC(=O)CN(C)C(=O)[C@H](Cc2ccc(C)cc2)N(C)C(=O)[C@@H]2CCN2C(=O)[C@H](C)N(C)C1=O [Compound 1842] ([NMeL]I[NMeA][Aze][NMePhe(4-Me)][Sar][hPhe(3-Cl-4-CF3)]P[Ac5c][NMeI][NMeD]-NMe2; lactam N-11)	≤ 0.02	0.00066
CCCOC[C@H]1C(=O)N(C)CC(=O)N[C@@H](CCc2ccc(C(F)(F)F)c(Cl)c2)C(=O)N2CCC[C@H]2C(=O)NC2(CCCC2)C(=O)N(C)[C@@H]([C@@H](C)CC)C(=O)N(C)[C@H](C)CC(=O)N(C)[C@@H](CC(C)C)C(=O)N[C@@H]([C@@H](C)CC)C(=O)N(C)[C@@H](C)C(=O)N2CC[C@H]2C(=O)N1C [Compound 529] (cyclo([Ac5c][NMeI][NMedβ3hAla][NMeL]I[NMeA][Aze][NMeS](Propyl)[Sar][hPhe(3-Cl-4-CF3)]P))	≤ 0.02	0.0082
CCCOC[C@H]1C(=O)N(C)CC(=O)N[C@@H](CCc2ccc(C(F)(F)F)c(F)c2)C(=O)N2CCC[C@H]2C(=O)NC2(CCCC2)C(=O)N(C)[C@@H](C2CCCC2)C(=O)N(C)[C@H](C(=O)N(C)C)CSCC(=O)N(C)[C@@H](CC(C)C)C(=O)N[C@@H]([C@@H](C)CC)C(=O)N(C)[C@@H](C)C(=O)N2CC[C@H]2C(=O)N1C [Compound 2174, (3S,9S,12S,17S,20S,23S,29R,32S,38S)-20-[(2S)-butan-2-yl]-32-cyclopentyl-3-[2-[3-fluoro-4-(trifluoromethyl)phenyl]ethyl]-N,N,7,10,17,18,24,30,33-nonamethyl-23-(2-methylpropyl)-2,5,8,11,16,19,22,25,31,34,37-undecaoxo-9-(propoxymethyl)spiro[27-thia-1,4,7,10,15,18,21,24,30,33,36-undecazatricyclo[36.3.0.012,15]hentetracontane-35,1′-cyclopentane)-29-carboxamide] ({CH2CO}-[NMeL]I[NMeA][Aze][NMeS](Propyl)[Sar][hPhe(3-F,4-CF3)]P[Ac5c][NMeGly(cPent)][NMeC]-NMe2; thioether N-11)	> 0.5	0.87
CC(C)C[C@H]1C(=O)N[C@@H]([C@@H](C)O)C(=O)N(C)[C@@H](C)C(=O)N2CC[C@H]2C(=O)N(C)[C@@H](CC2CCCCC2)C(=O)N(C)CC(=O)N[C@@H](CCc2ccc(C(F)(F)F)c(Cl)c2)C(=O)N2CCC[C@H]2C(=O)NC2(CCCC2)C(=O)N(C)[C@@H](C(C)C)C(=O)N(C)[C@H](C(=O)N2CCCCC2)CC(=O)N1C [Compound 450] ([NMeL]T[NMeA][Aze][NMeCha][Sar][hPhe(3-Cl-4-CF3)]P[Ac5c][NMeV][NMeD]-Piperidide; lactam N-11)	> 0.5	0.0066
CC[C@H](C)[C@@H]1NC(=O)[C@H](CC(C)C)N(C)C(=O)C[C@@H](C(=O)N2CCCCC2)N(C)C(=O)[C@H](C2CCCCC2)N(C)C(=O)C2(CCCC2)NC(=O)[C@@H](CO)N(C)C(=O)[C@H](CCc2ccc(C(F)(F)F)c(Cl)c2)NC(=O)CN(C)C(=O)[C@H](CC2CCCCC2)N(C)C(=O)CN(C)C(=O)CN(C)C1=O [Compound 1448] ([NMeL]I[Sar][Sar][NMeCha][Sar][hPhe(3-Cl-4-CF3)][dNMeS][Ac5c][NMeChg][NMeD]-Piperidide; lactam N-11)	> 0.5	0.0011
CCCOC[C@@H]1NC(=O)[C@H](CC(C)C)N(C)C(=O)C[C@@H](C(=O)N2CCCCC2)N(C)C(=O)[C@H](C(C)C)N(C)C(=O)C2(CCCC2)NC(=O)[C@@H]2CCCN2C(=O)[C@H](CCc2ccc(C(F)(F)F)c(Cl)c2)NC(=O)CN(C)C(=O)[C@H](CC2CCCCC2)N(C)C(=O)[C@@H]2CCN2C(=O)[C@H](C)N(C)C1=O [Compound 1831] ([NMeL]S(Propyl)[NMeA][Aze][NMeCha][Sar][hPhe(3-Cl-4-CF3)]P[Ac5c][NMeV][NMeD]-Piperidide; lactam N-11)	> 0.5	0.071
CC[C@H](C)[C@@H]1NC(=O)[C@H](CC(C)C)N(C)C(=O)C[C@@H](C)N(C)C(=O)[C@H](CC(C)C)NC(=O)C(C)(C)N(C)C(=O)[C@H](Cc2ccccc2)NC(=O)[C@H](CCc2ccc(C(F)(F)F)c(F)c2)NC(=O)CN(C)C(=O)[C@H](Cc2ccc(Cl)cc2)N(C)C(=O)CN(C)C(=O)CN(C)C1=O [Compound 471] (cyclo(F[NMeAib]L[NMedβ3hAla][NMeL]I[Sar][Sar][NMePhe(4-Cl)][Sar][hPhe(3-F,4-CF3)]))	> 0.5	0.058
CC[C@H](C)[C@@H]1NC(=O)[C@H](CC(C)C)N(C)C(=O)C[C@@H](C)NC(=O)[C@H](C(C)C)N(C)C(=O)C2(CCCC2)NC(=O)[C@@H]2CCCN2C(=O)[C@H](CCc2ccc(C(F)(F)F)c(Cl)c2)NC(=O)CN(C)C(=O)[C@H](CC2CCCCC2)N(C)C(=O)[C@@H]2CCN2C(=O)[C@H](CCC(=O)NC)N(C)C1=O [Compound 810] (cyclo([Ac5c][NMeV][d(β3hA)][NMeL]I[NMeE](NHMe)[Aze][NMeCha][Sar][hPhe(3-Cl-4-CF3)]P))	> 0.5	0.049
CC[C@H](C)[C@@H]1NC(=O)[C@H](CC(C)C)N(C)C(=O)C[C@@H](C(=O)N2CCOCC2)N(C)C(=O)[C@H]([C@@H](C)CC)N(C)C(=O)C2(CCCC2)NC(=O)[C@@H]2CCCN2C(=O)[C@H](CCc2ccc(C(F)(F)F)c(Cl)c2)NC(=O)CN(C)C(=O)[C@H](Cc2ccc(C(F)(F)F)cc2)N(C)C(=O)[C@@H]2CCN2C(=O)[C@H](C)NC1=O [Compound 1293] ([NMeL]IA[Aze][NMePhe(4-CF3)][Sar][hPhe(3-Cl-4-CF3)]P[Ac5c][NMeI][NMeD]-Morpholide; lactam N-11)	≤ 0.02	0.00096
CCCCC[C@H]1C(=O)N[C@@H]([C@@H](C)CC)C(=O)N(C)[C@@H](C)C(=O)N2CC[C@H]2C(=O)N(C)[C@@H](CC2CCCCC2)C(=O)N(C)CC(=O)N[C@@H](CCc2ccc(C(F)(F)F)c(Cl)c2)C(=O)N2CCC[C@H]2C(=O)NC2(CCCC2)C(=O)N(C)[C@@H](C2CCCC2)C(=O)N(C)[C@H](C(=O)N2CCC2)CC(=O)N1C [Compound 144] ([NMeAhp(2)]I[NMeA][Aze][NMeCha][Sar][hPhe(3-Cl-4-CF3)]P[Ac5c][NMeGly(cPent)][NMeD]-{Azetidin(1-yl)}; lactam N-11)	≤ 0.02	0.0011
CC[C@H](C)[C@@H]1NC(=O)[C@H](CC(C)C)N(C)C(=O)C[C@@H](C(=O)N2CCCC2)N(C)C(=O)[C@H](C2CCCC2)N(C)C(=O)C2(CCCC2)NC(=O)[C@@H]2CCCN2C(=O)[C@H](CCc2ccc(C(F)(F)F)c(F)c2)NC(=O)CN(C)C(=O)[C@H](CC2CCCCC2)N(C)C(=O)[C@@H]2CCN2C(=O)[C@H](C)N(C)C1=O [Compound 1091] ([NMeL]I[NMeA][Aze][NMeCha][Sar][hPhe(3-F,4-CF3)]P[Ac5c][NMeGly(cPent)][NMeD]-Pyrrolidide; lactam N-11)	≤ 0.02	0.001
CCO[C@@H]1C[C@H]2C(=O)NC3(CCC3)C(=O)N(C)[C@@H](C3CCCC3)C(=O)N(C)[C@H](C)CC(=O)N(C)[C@@H](CC(C)C)C(=O)N[C@@H]([C@@H](C)CC)C(=O)N(C)[C@@H](C)C(=O)N3CC[C@H]3C(=O)N(CC)[C@@H](Cc3ccc(C)cc3)C(=O)N(C)CC(=O)N[C@@H](CCc3ccc(C(F)(F)F)c(Cl)c3)C(=O)N2C1 [Compound 713] (cyclo([Ac4c][NMeGly(cPent)][NMedβ3hAla][NMeL]I[NMeA][Aze][NEtPhe(4-Me)][Sar][hPhe(3-Cl-4-CF3)][Hyp](Et)))	≤ 0.02	0.004
CC[C@H](C)[C@@H]1NC(=O)[C@H](CC(C)C)N(C)C(=O)C[C@@H](C(=O)N2CCCCC2)N(C)C(=O)[C@H](C2CCCC2)N(C)C(=O)C2(CCCC2)NC(=O)[C@@H]2CCCN2C(=O)[C@H](CCc2ccc(C(F)(F)F)c(Cl)c2)NC(=O)CN(C)C(=O)[C@H](Cc2ccc(C)cc2)N(C)C(=O)[C@@H]2CCN2C(=O)[C@H](C)N(C)C1=O [Compound 1772] ([NMeL]I[NMeA][Aze][NMePhe(4-Me)][Sar][hPhe(3-Cl-4-CF3)]P[Ac5c][NMeGly(cPent)][NMeD]-Piperidide; lactam N-11)	≤ 0.02	0.00075
